The results in this text go back to patent US8664261B2, “Organic compounds having cooling properties” (Givaudan S.A., priority 2009, dated 2014).

The test system of assay [1] is panelists. The assay is described as follows: Application in toothpaste: duration of perceived cooling sensation after brushing. The format is in vivo. The settings on record: 0.10 g of 10% ethanol solution of compound + 0.03 g saccharin in 9.96 g opaque toothgel base; teeth brushed, mouth rinsed with water. Here is the method: 0.10 g of a 10% solution in ethanol of a compound of formula (I) listed in Table 4 below and 0.03 g saccharin were mixed in 9.96 g of an opaque toothgel base. A piece of the thus prepared toothpaste was put on a toothbrush and a panelist's teeth were brushed. The mouth was rinsed with water and the water spat out. A long lasting cooling sensation was felt by the panelist in all areas of the mouth. The cooling sensation was perceived for up to 60 min (see Table 5).

The subject of assay [2] is panelists. Nature of the assay: Cooling intensity: panelists taste aqueous solutions, compared with menthol at 2 ppm. The format is in vivo. Conditions: aqueous solution with cooling intensity similar to or slightly higher than a solution of menthol at 2 ppm; tasted by small group of panelists.

Turning to `Cc1[nH]c2ccccc2c1CCNC(=O)[C@@H]1C[C@H](C)CC[C@H]1C(C)C` [Example 2I, (1R,2S,5R)-2-isopropyl-5-methyl-N-(2-(2-methyl-1H-indol-3-yl)ethyl)cyclohexane-carboxamide], in the assay on panelists [1], the Perceived cooling sensation is 60 min.
In the assay on panelists [2], `CC(C)[C@@H]1CC[C@@H](C)C[C@H]1C(=O)NCCc1ccccn1` [(1R,2S,5R)-2-isopropyl-5-methyl-N-(2-(pyridin-2-yl)ethyl)cyclohexanecarboxamide, reference compound] had a Concentration of 0.02 ppm.
On to `CC1CCC(C(C)C)C(O)C1` (stereo not drawn) [I-Menthol, reference compound], for which the Concentration in the assay with panelists [2] came out at 2.0 ppm.
For `CC(Cc1cccnc1)NC(=O)[C@@H]1C[C@H](C)CC[C@H]1C(C)C` (stereo partly drawn) [Example 1, (1R,2S,5R)-2-isopropyl-5-methyl-N-(1-(pyridin-3-yl)propan-2-yl)cyclohexanecarboxamide], the Perceived cooling sensation in the assay with panelists [1] was 30 min. The compound further displayed a Concentration in the assay on panelists [2] of 0.01 ppm.
As for `CC(Cc1ccsc1)NC(=O)[C@@H]1C[C@H](C)CC[C@H]1C(C)C` (stereo partly drawn) [Example 2M, (1R,2S,5R)-2-isopropyl-5-methyl-N-(1-(thiophen-3-yl)propan-2-yl)cyclohexane-carboxamide], in the assay on panelists [1], the Perceived cooling sensation turned out to be 40 min. This compound had a Concentration in the assay on panelists [2] of 0.002 ppm.
In the assay on panelists [2], `CCNC(=O)C1CC(C)CCC1C(C)C` (stereo not drawn) [N-ethyl p-menthanecarboxamide, reference compound] displayed a Concentration of 1.5 ppm.
As to `CC(C)[C@@H]1CC[C@@H](C)C[C@H]1C(=O)NCCc1ncc[nH]1` [Example 2H, (1R,2S,5R)-N-(2-(1H-imidazol-2-yl)ethyl)-2-isopropyl-5-methlycyclohexane-carboxamide], the Perceived cooling sensation in the assay with panelists [1] was determined as 40 min. Also, the Concentration with panelists [2] is recorded as 0.2 ppm.
With `CC(C)[C@@H]1CC[C@@H](C)C[C@H]1C(=O)NCCn1ccc2ccccc21` [Example 2J, (1R,2S,5R)-N-(2-(1H-indol-1-yl)ethyl)-2-isopropyl-5-methylcyclohexanecarboxamide], the Concentration in the assay with panelists [2] is recorded as 0.002 ppm.
`CC(C)[C@@H]1CC[C@@H](C)C[C@H]1C(=O)Nc1ccc(CC#N)cc1` [(1R,2S,5R)-N-(4-(cyanomethyl)phenyl)-2-isopropyl-5-methylcyclohexanecarboxamide, reference compound] registered a Concentration with panelists [2] of 0.2 ppm.
